Results published in patent US11484593B2, “Atropisomers of halogenated tetraphenylbacteriochlorins and chlorins and their use in photodynamic therapy” (LUZITIN, S.A., priority 2015, dated 2022).

Experiments:
[1] = system: HT-29 (human colon carcinoma) cells; test: In vitro phototoxicity, resazurin cell viability after irradiation at 749 nm; format: cell-based; settings: light dose 1 J/cm^2 at 749 nm, 24 h incubation
[2] = Absorption spectra / molar absorption coefficients (Beer-Lambert) in ethanol; format: physicochemical; settings: for ε/10^3: infrared absorption maximum
[3] = photodecomposition quantum yield, aerated methanol:PBS (3:2), 749 nm, 640 mW
[4] = Singlet oxygen quantum yield in ethanol (phosphorescence at 1270 nm, phenalenone reference); format: physicochemical; settings: aerated ethanol
[5] = system: CT26 (mouse colon carcinoma) cells; test: In vitro phototoxicity, resazurin cell viability after irradiation at 749 nm; format: cell-based
[6] = Triplet lifetimes by nanosecond laser flash photolysis, excitation at 355 nm; format: physicochemical; settings: triplet lifetime in aerated ethanol
subcutaneous CT26 tumor = test: Vascular-PDT of subcutaneous CT26 tumor in BALB/c mice with enriched atropisomer compositions (Example 7); format: in vivo; settings: nominal 0.7 mg/kg i.v., 15 min later 55 J on 1.33 cm^2
[7] = in ethanol, reference; cited from earlier work
[8] = light dose 1 J/cm^2 at 749 nm, extrapolated from non-linear regression curve
[9] = light dose 1 J/cm^2 at 749 nm, 24 h incubation

CNS(=O)(=O)c1ccc(F)c(-c2c3nc(c(-c4c(F)ccc(S(=O)(=O)NC)c4F)c4ccc([nH]4)c(-c4c(F)ccc(S(=O)(=O)NC)c4F)c4nc(c(-c5c(F)ccc(S(=O)(=O)NC)c5F)c5ccc2[nH]5)CC4)CC3)c1F (single isomer, unassigned) [LUZ11-A] showed an IC50 [1] of 0.343 µM, an IC90 [1] of 1.01 µM and a λmax [2] of 743 nm. The “ε/10^3” value [2] was 126 M^−1 cm^−1, the “ΦPD/10^−6” value [3] was 15 and the ΦΔ [4] was 0.39. For the same molecule, the IC50 ([5]; light dose 1 J/cm^2, Table 1, extrapolated from non-linear regression curve) was 67.3 µM, the IC50 [5, 8] was 67.3 µM and the IC90 [5, 8] was 2830 µM. For the same molecule, the “τT (air)” value [6] was 257 ± 7 ns.
CNS(=O)(=O)c1ccc(F)c(-c2c3nc(c(-c4c(F)ccc(S(=O)(=O)NC)c4F)c4ccc([nH]4)c(-c4c(F)ccc(S(=O)(=O)NC)c4F)c4nc(c(-c5c(F)ccc(S(=O)(=O)NC)c5F)c5ccc2[nH]5)CC4)CC3)c1F (single isomer, unassigned) [LUZ11-B] gave an IC50 [1] of 0.178 µM, an IC90 [1] of 0.433 µM and a λmax [2] of 743 nm. The “ε/10^3” value [2] was 137 M^−1 cm^−1, the “ΦPD/10^−6” value [3] was 15 and the ΦΔ [4] was 0.35. It also gave an IC50 ([5]; light dose 1 J/cm^2, Table 1) of 1.46 µM, an IC50 [5, 9] of 1.46 µM and an IC90 [5, 8] of 7.53 µM. The “τT (air)” value [6] was 296 ± 33 ns.
In the case of CNS(=O)(=O)c1ccc(F)c(-c2c3nc(c(-c4c(F)ccc(S(=O)(=O)NC)c4F)c4ccc([nH]4)c(-c4c(F)ccc(S(=O)(=O)NC)c4F)c4nc(c(-c5c(F)ccc(S(=O)(=O)NC)c5F)c5ccc2[nH]5)CC4)CC3)c1F [LUZ11], the IC50 [1] is reported as 0.367 µM, the IC90 [1] is reported as 0.588 µM and the “long-term cures (tumor-free 60 days after the treatment)” value (subcutaneous CT26 tumor) is reported as “not possible to obtain long-term cures”. The median survival time (subcutaneous CT26 tumor) was 20 days, the IC50 [5, 9] was 0.871 µM and the IC90 [5, 9] was 4.31 µM.
For O=C1C=Cc2cccc3cccc1c23 [phenalenone], the “singlet oxygen quantum yield ΦΔ (literature value)” value [7] is given as 0.95.
In the case of CNS(=O)(=O)c1ccc(F)c(-c2c3nc(c(-c4c(F)ccc(S(=O)(=O)NC)c4F)c4ccc([nH]4)c(-c4c(F)ccc(S(=O)(=O)NC)c4F)c4nc(c(-c5c(F)ccc(S(=O)(=O)NC)c5F)c5ccc2[nH]5)CC4)CC3)c1F [sample X], the “long-term cures (tumor-free 60 days after the treatment)” value (subcutaneous CT26 tumor) is reported as “absence of long-term cures”, the median survival time (subcutaneous CT26 tumor) is reported as 18 days and the “median survival time shorter than with the LUZ11 sample” value (subcutaneous CT26 tumor) is reported as 2 days.
